For experiment [1], the system named is acetyl-CoA carboxylase. The experiment in a line: Elution of purine-binding proteins from ATP-Sepharose column with the compound. Further details: species or system porcine liver, porcine lidney, HeLa cells, whole mice. The conditions noted are these: lysate on ATP-Sepharose; methotrexate 10 nM to 500 μM; SDS gel, silver stain, MALDI.
Experimental: (§1) Molecular targets for the folate antagonist methotrexate were identified as follows. Cell or tissue lysates were produced from porcine liver, porcine lidney, HeLa cells, and whole mice. This lysate was run over an ATP-Sepharose™ column in order to extract all purine-binding proteins. […] The ATP-Sepharose™ washed several times, and then eluted with methotrexate at concentrations ranging from 10 nM to 500 μM to identify proteins that bound to this compound. The eluted fractions were run on a 1-dimensional SDS polyacrylamide gel. The eluted proteins were then stained with silver stain, cut out of the gel, and identified using matrix-assisted laser deionization/ionization (MALDI).
Experiment [2] deals with glutathione synthase. The experiment is described as above. Further details: species or system porcine liver, porcine lidney, HeLa cells, whole mice. The conditions noted are these: lysate on ATP-Sepharose; methotrexate 10 nM to 500 μM; SDS gel, silver stain, MALDI.
Experimental: (§2) Molecular targets for the folate antagonist methotrexate were identified as follows. Cell or tissue lysates were produced from porcine liver, porcine lidney, HeLa cells, and whole mice. This lysate was run over an ATP-Sepharose™ column in order to extract all purine-binding proteins. […] The ATP-Sepharose™ washed several times, and then eluted with methotrexate at concentrations ranging from 10 nM to 500 μM to identify proteins that bound to this compound. The eluted fractions were run on a 1-dimensional SDS polyacrylamide gel. The eluted proteins were then stained with silver stain, cut out of the gel, and identified using matrix-assisted laser deionization/ionization (MALDI). […] The experiment was also repeated using folate to elute the purine binding proteome from the ATP-Sepharose column.
Experiment [3] relates to DHFR. The description is as above. Further details: species or system porcine liver, porcine lidney, HeLa cells, whole mice. The conditions noted are these: lysate on ATP-Sepharose; methotrexate 10 nM to 500 μM; SDS gel, silver stain, MALDI.
Experimental: as §2
For experiment [4], the system named is the same proteins that were eluted from ATP-Sepharose with methotrexate. The experiment in a line: Elution of lysate proteins from methotrexate covalently linked to agarose. The class given is binding, porcine liver, porcine lidney, HeLa cells, whole mice. Particulars: lysates applied to methotrexate covalently linked to agarose.
Experimental: as §1
For experiment [5], the system named is GART. The experiment in a line: Elution of purine-binding proteins from ATP-Sepharose column with the compound. Particulars: lysate on ATP-Sepharose; methotrexate 10 nM to 500 μM; SDS gel, silver stain, MALDI.
Experimental: as §2
Experiment [6] concerns propionyl-CoA carboxylase. Described as above. Details: species or system porcine liver, porcine lidney, HeLa cells, whole mice. The conditions noted are these: lysate on ATP-Sepharose; methotrexate 10 nM to 500 μM; SDS gel, silver stain, MALDI.
Experimental: as §2
Experiment [7] concerns biotin carboxylase. The description is as above. Further details: species or system porcine liver, porcine lidney, HeLa cells, whole mice. Particulars: lysate on ATP-Sepharose; methotrexate 10 nM to 500 μM; SDS gel, silver stain, MALDI.
Experimental: as §1
The subject of experiment [8] is methylcrotonyl-CoA carboxylase. Described as above. Further details: species or system porcine liver, porcine lidney, HeLa cells, whole mice. Particulars: lysate on ATP-Sepharose; methotrexate 10 nM to 500 μM; SDS gel, silver stain, MALDI.
Experimental: as §1
The subject of experiment [9] is pyruvate carboxylase. Described as above. Details: species or system porcine liver, porcine lidney, HeLa cells, whole mice. The conditions noted are these: lysate on ATP-Sepharose; methotrexate 10 nM to 500 μM; SDS gel, silver stain, MALDI.
Experimental: as §2

The structures appear in SMILES notation.

Regarding `CN(Cc1cnc2nc(N)nc(N)c2n1)c1ccc(C(=O)N[C@@H](CCC(=O)O)C(=O)O)cc1` [methotrexate], the “acetyl-CoA carboxylase eluted from ATP-Sepharose by the compound (indicates binding)” value in experiment [1] was “eluted”. The “glutathione synthase eluted from ATP-Sepharose by the compound (indicates binding)” value in experiment [2] is reported as “eluted”. The “DHFR eluted from ATP-Sepharose by the compound (indicates binding)” value in [3] was “eluted”. Also, the “same proteins eluted from methotrexate-agarose with methotrexate (confirmation of targets)” value in experiment [4] is given as “also eluted from methotrexate agarose with methotrexate”. Also, the “GART eluted from ATP-Sepharose by the compound (indicates binding)” value in experiment [5] is listed as “eluted”. Besides, the “propionyl-CoA carboxylase eluted from ATP-Sepharose by the compound (indicates binding)” value in experiment [6] is on record as “eluted”. Further, in experiment [7], the “biotin carboxylase eluted from ATP-Sepharose by the compound (indicates binding)” value is “eluted”. Also, the “methylcrotonyl-CoA carboxylase eluted from ATP-Sepharose by the compound (indicates binding)” value in experiment [8] is “eluted”. In addition, the “pyruvate carboxylase eluted from ATP-Sepharose by the compound (indicates binding)” value in experiment [9] is “eluted”.

The values above are taken from US20070212690A1, “Folate Antagonists Having Improved Selectivity” (Serenex, Inc., priority 2003, published 2007).
